Results taken from patent US20210205292A1, “INHIBITORS OF CREB-CBP INTERACTION FOR TREATMENT OF LEUKEMIA” (The Board of Trustees of the Leland Stanford Junior …, priority 2016, published 2021).

Tests used:
KG-1 cells = assay: Chemotherapy combination, isobolograms in KG-1 cells; assay type: cell-based; conditions: 48 hours
Experimental: AML cell lines were purchased from ATCC and maintained with IMDM (Gibco) supplemented with 10% FBS (Fisher Scientific) and 1% PSG (Gibco). Cells were plated at a density of 2-4×10^5 cells/ml, and treated with various doses of Compound A in 0.1% DMSO or 0.1% DMSO alone. Cell counts and viability were determined using the Vi-CELL XR Cell Viability Analyzer (Beckman Coulter). HL-60 and KG-1 cells overexpressing CREB or CBP were generated using lentiviral gene delivery with subsequent puromycin selection and FACs sorting for GFP. CREB knockdown was achieved by infecting cells with a lentivirus expressing the shRNA sequence 5′-[…]-3′ (SEQ ID NO:). For chemotherapy combination experiments, combination index values were calculated using median effects analysis on Calcusyn software. Human patient bone marrow samples were cultured in DMEM plus 20% FBS and 1×PSG, supplemented with recombinant GM-CSF (20 ng/ml), G-CSF (20 ng/ml), SCF (50 ng/ml), IL-3 (20 ng/ml), and IL-6 (10 ng/ml). Cells were plated at a concentration of 1×10^5 cells/ml in a 12-well plate. Vehicle (0.1% DMSO) or Compound A (2 μM) was added for up to 72 hours. All samples contained >85% AML blasts and were not sorted prior to performing experiments. Immunostaining and flow cytometry analyses were performed according to standard procedures. All antibodies were purchased from BD Biosciences. Single cell suspensions of bone marrow culture were subsequently analyzed on a D×P10 flow cytometer (Cytek). Bone marrow from AML patients were collected through voluntary patient participation at University of California, Los Angeles (Los Angeles, Calif., USA) and Stanford University (Palo Alto, Calif., USA) in compliance with the Institutional Review Board regulations of each institution.
To test the effects of CREB inhibition on AML cells, four AML cell lines were treated with doses of Compound A ranging from 100 pM to 10 μM for 48 hours. […] KG-1 cells were less sensitive to Compound A and expressed lower levels of CREB compared to HL-60 cells (FIG. 2, panel A). […]

Caspase-3 = Caspase-3 protease activity (ApoTarget kit); assay type: cell-based; design: unit of the concentration uncertain
Description: The ApoTarget Caspase-3 Protease Activity Kit (Invitrogen) was used per manufacturer's instructions.
The balance between pro- and anti-apoptotic protein expression contributes to cell fate decisions. CREB regulates the expression of several anti-apoptotic proteins, including Bcl-2, Bcl-XL and Mcl-1. Bcl-2 expression in particular is known to mediate resistance to chemotherapy and influence clinical outcome in a number of cancer types, including AML. The ability of Compound A to cause apoptosis by disrupting the CREB-driven expression of these anti-apoptotic proteins was examined. In HL-60 cells treated with Compound A, apoptosis is induced in a dose- and time-dependent manner. […] Compound A elicited apoptosis through the intrinsic apoptosis pathway, with activation of Caspase-3 (FIG. 5, panel B) and detectable Caspase-9 cleavage (data not shown). Relative caspase-3 activity at 24 hours: 5.4±0.8 for etoposide, 1±0.78, 0.93±0.71, 1.02±0.67, 2.9±0.58, 5.1±0.63, 4.1±0.71 for 0, 1, 1.5, 2, 2.5 and 3 mM Compound A, respectively. Activity at 72 hours: 1.2±0.05 for etoposide, 1.0±0.02, 1.9±0.03, 3.7±0.04, 4.4±0.05, 2.1±0.03, 1.9±0.02 for 0, 1, 1.5, 2, 2.5 and 3 mM Compound A, respectively. The transcription of Bcl-2 decreased following 72 hours of 2 mM Compound A treatment (FIG. 5, panel C), and this was verified by Western blot analysis (FIG. 5, panel D). […] To confirm whether loss of Bcl-2 function alone is sufficient to induce apoptosis in AML cells, HL-60 cells were treated with the validated Bcl-2 inhibitor ABT-737 (50 to 200 nM). […] Bcl-2 levels are influenced by CREB expression in these AML cell lines (FIG. 11, panel C).

CREB target genes = assay: RT-PCR of CREB target genes in GFP+ bone marrow cells of engrafted NSG mice; assay type: in vivo, mouse; conditions: 2.3 mg/kg, three once-daily treatments after ten-day engraftment
Experimental: To directly evaluate the effects of Compound A on CREB transcriptional activity in vivo, six NSG mice were injected with 2×10^6 HL-60 expressing GFP. After a ten-day engraftment period, the mice received three once-daily treatments of either 2.3 mg/kg Compound A or DMSO. The mice were then sacrificed and GFP+ bone marrow cells were sorted and analyzed for transcriptional changes in validated CREB target genes. This experiment recapitulated in vitro findings (FIG. 4, panel E).

## N#Cc1ccc(NC(=O)c2cc3ccccc3cc2O)cc1 [Compound A, N-(4-cyanophenyl)-3-hydroxy-2-naphthamide]
KG-1 cells
  interaction with daunorubicin and cytarabine (isobolograms): synergistic
KG-1 cells; Compound A with cytarabine
  Combination Index (CI): less than 1
KG-1 cells; Compound A with daunorubicin
  Combination Index (CI): less than 1
Caspase-3; 24 hours, 1 (unit uncertain)
  relative caspase-3 activity: 0.93±0.71
Caspase-3; 24 hours, 1.5 (unit uncertain)
  relative caspase-3 activity: 1.02±0.67
Caspase-3; 24 hours, 2 (unit uncertain)
  relative caspase-3 activity: 2.9±0.58
Caspase-3; 24 hours, 2.5 (unit uncertain)
  relative caspase-3 activity: 5.1±0.63
Caspase-3; 24 hours, 3 (unit uncertain)
  relative caspase-3 activity: 4.1±0.71
Caspase-3; 72 hours, 1 (unit uncertain)
  relative caspase-3 activity: 1.9±0.03
Caspase-3; 72 hours, 1.5 (unit uncertain)
  relative caspase-3 activity: 3.7±0.04
Caspase-3; 72 hours, 2 (unit uncertain)
  relative caspase-3 activity: 4.4±0.05
Caspase-3; 72 hours, 2.5 (unit uncertain)
  relative caspase-3 activity: 2.1±0.03
Caspase-3; 72 hours, 3 (unit uncertain)
  relative caspase-3 activity: 1.9±0.02
CREB target genes
  expression of CREB target genes in vivo (RT-PCR): significantly reduced expression of all genes shown
